For orientation: logP means a log measure of how a compound divides between an organic and an aqueous phase.

Structures are written as SMILES.

logP data for 15 molecules are collected here from the SangsterLogP compilation.

In the case of `COC(=O)CCC(=O)OC`, the lipophilicity (logP) is 0.19.

`COCCOC` had a logP of -0.21.

On to `CCOC(=O)CCC(=O)OCC`, for which the lipophilicity (logP) was 1.19.

As to `CCCCOCCCC`, the logP was 3.21.

As for `CCCCCCOCCO`, the lipophilicity (logP) amounted to 1.86.

Take `CCCCOCCOCCOCCCC`: the logP was found to be 1.92.

As to `CCOCCOCCOCC`, the logP worked out at 0.39.

On to `CCOCCOCCO`, for which the logP was -0.54.

The molecule `CCCCOCCOCCCC` showed a logP of 2.48.

As for `CCCCCCOCCOCCO`, the log partition coefficient (logP) was found to be 1.7.

`CCOCCOCC`: the lipophilicity (logP) was 0.66.

`CCCCOCCO` registered a lipophilicity (logP) of 0.76.

As to `CCCCOCCOCCO`, the logP is 0.56.

As to `CCCOC(=O)CCC(=O)OCCC`, the logP was determined as 2.16.

The molecule `COCCOCCOC` came in with a logP of -0.36.
